The test system of assay [1] is HCT 116 cells. The experiment in a line: Viability assay in HCT 116 cells (CellTiter-Glo Luminescent Cell Viability Assay). In kind it is cell-based. Particulars: HCT 116 human colon carcinoma cells, 5 days (120 h) incubation, ATP luminescence. As for the experimental part:
Viability Assay in HCT 116 Cells
A viability assay was performed using the CellTiter-Glo® Luminescent Cell Viability Assay (see Promega Corporation's Technical Bulletin No. 288, pp. 1-11 [revised February 2004] which is hereby incorporated by reference in its entirety). This assay is a homogeneous method of determining the number of viable cells in culture based on quantitation of the ATP present, an indicator of metabolically active cells. The assay is designed for use with multiwell formats, making it ideal for automated high-throughput screening (HTS), cell proliferation and cytotoxicity assays. The homogenous assay procedure involves adding a single reagent (containing luciferase, luciferan substrate, and buffer) directly to cells cultured in serum-supplemented medium. Cell washing, removal of medium and multiple pipetting steps are not required. The system detects as few as 15 cells/well in a 384-well format in 10 minutes after adding reagent and mixing.
The homogeneous “add-mix-measure” format results in cell lysis and generation of a luminescent signal proportional to the amount of ATP present. The amount of ATP is directly proportional to the number of cells present in culture. The above-referenced assay generates a “glow-type” luminescent signal, produced by the luciferase reaction, which has a half-life generally greater than five hours, depending on cell type and medium used. The extended half-life eliminates the need to use reagent injectors and provides flexibility for continuous or batch mode processing of multiple plates. The unique homogeneous format avoids errors that may be introduced by other ATP measurement methods that require multiple steps.
HCT 116 cells (human colon carcinoma, ATCC-No. CCl-247) were cultivated in RPMI 1640 medium with GlutaMAX™ I (cell culture media that contains L-Alanyl-L-Glutamine [a stabilized a form/source of L-Glutamine] from Invitrogen, Cat-No. 61870-010), 2.5% Fetal Calf Serum (FCS, Sigma Cat-No. F4135 (FBS)); 100 Units/ml penicillin/100 μg/ml streptomycin (=Pen/Strep from Invitrogen Cat. No. 15140). For the assay the cells were seeded in 384 well plates, 1000 cells per well, in the same medium. The next day the test compounds were added in various concentrations ranging from 30 μM to 0.0015 μM (10 concentrations, 1:3 diluted). After 5 days the viability assay was done according to the instructions of the manufacturer. In brief: the cell-plate was equilibrated to room temperature for approximately 30 minutes and then reagent (containing luciferase, luciferan substrate, and buffer) was added. The contents were carefully mixed for 15 minutes to induce cell lysis. After 45 minutes the luminescent signal was measured in Victor 2, (scanning multiwell spectrophotometer, Wallac).
Medium: RPMI 1640 with cell culture media containing L-Alanyl-L-Glutamine [GlutaMAX™ I (Invitrogen, Cat-No. 61870)], 5% FCS (Sigma Cat.-No. F4135), Pen/Strep (Invitrogen, Cat No. 15140).
HCT116 (ATCC-No. CCl-247): 1000 cells in 60 μl per well of 384 well plate (Greiner 781098, μClear-plate white)
After seeding incubate plates 24 h at 37° C., 5% CO2
2nd. Day: Induction (Treatment with Compounds, 10 Concentrations):
In order to achieve a final concentration of 30 μM as highest concentration 3.5 μl of 10 mM compound stock solution were added directly to 163 μl media. Then step (d) of the dilution procedure described below, was followed.
In order to achieve the second highest to the lowest concentrations, a serial dilution with dilution steps of 1:3 was followed according to the procedure (a-d) as described here below:
(a) for the second highest concentration add 10 μl of 10 mM stock solution of compound to 20 μl dimethylsulfoxide (DMSO)
(b) dilute 8×1:3 (always 10 μl to 20 μl DMSO) in this DMSO dilution row (results in 9 wells with concentrations from 3333.3 μM to 0.51 μM)
(c) dilute each concentration 1: 47.6 (3.5 μl compound dilution to 163 μl media)
(d) add 10 μl of every concentration to 60 μl media in the cell plate […]

The target of assay [2] is T1, Aurora A kinase (Homo sapiens, UniProt O14965).
T1 sequence (O14965 1-403): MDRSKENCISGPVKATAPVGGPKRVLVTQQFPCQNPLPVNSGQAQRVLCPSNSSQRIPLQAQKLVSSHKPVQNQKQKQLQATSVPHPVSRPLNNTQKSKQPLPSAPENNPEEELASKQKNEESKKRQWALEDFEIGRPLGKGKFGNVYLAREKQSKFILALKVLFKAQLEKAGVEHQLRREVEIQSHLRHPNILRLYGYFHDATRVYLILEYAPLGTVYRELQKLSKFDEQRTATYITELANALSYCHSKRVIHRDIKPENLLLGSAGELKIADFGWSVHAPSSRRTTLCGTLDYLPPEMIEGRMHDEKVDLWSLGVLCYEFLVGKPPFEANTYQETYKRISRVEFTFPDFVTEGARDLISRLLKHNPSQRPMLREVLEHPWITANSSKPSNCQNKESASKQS
The experiment in a line: IC50 determination for inhibitors of Aurora A (ELISA-type kinase assay, GST-Histone H3 substrate). In kind it is biochemical. As to conditions: mutant Aurora A kinase, 30 μM ATP, 40 minutes, read-out: IC50 Aurora A kinase inhibition. As for the experimental part: IC50 Determination for Inhibitors of Aurora A
Aurora A is a serine threonine kinase involved in spindle assembly and chromosome segregation.
The assay is a typically ELISA-type assay where substrate (GST-Histone H3) is coupled to the assay-plate and is phosphorylated by the kinase. Phosphorylation is detected by a mouse anti-Phosphopeptid mAb and an HRP-labeled anti-mouse pAb. The assay is validated for IC50-determination.
Kinase activities were measured by Enzyme-Linked Immunosorbent Assay (ELISA): Maxisorp 384-well plates (Nunc) were coated with recombinant fusion protein comprising residues 1-15 of HistoneH3 fused to the N-terminus of Glutathione-S-Transferase. Plates were then blocked with a solution of 1 mg/mL I-block (a highly purified form of casein, Tropix cat. no. T2015) in phosphate-buffered saline. Kinase reactions were carried out in the wells of the ELISA plate by combining an appropriate amount of mutant Aurora A kinase with test compound and 30 μM ATP. The reaction buffer was 10× Kinase Buffer (Cell Signaling cat. no. 9802) supplemented with 1 μg/mL I-block. Reactions were stopped after 40 minutes by addition of 25 mM EDTA. After washing, substrate phosphorylation was detected by addition of anti-phospho-Histone H3 (Ser 10) 6G3 mAb (Cell Signaling cat. no. 9706) and sheep anti-mouse pAb-HRP (Amersham cat. no. NA931V), followed by colorimetric development with TMB (3,3′,5,5′-tetramethylbenzidine from Kirkegaard & Perry Laboratories). After readout of the adsorbance, IC50 values were calculated using a non-linear curve fit (XLfit software (ID Business Solution Ltd., Guilford, Surrey, UK)).
In general terms: An ELISA detects its analyte on a solid surface through an enzyme-linked reagent.

The term IC50 denotes the midpoint of a concentration-inhibition curve. Take `CCN1C(=O)C(C)(C)c2cc3nc(-c4n[nH]c5c4CSCC5)[nH]c3cc21` [Example 26, 5-Ethyl-7,7-dimethyl-2-(1,4,6,7-tetrahydro-thiopyrano[4,3-c]pyrazol-3-yl)-5,7-dihydro-3H-imidazo[4,5-f]indol-6-one]: in assay [1], the IC50 was in the range of 100 to 2000 nM.
Consider `CC(C)N1C(=O)C(C)(C)c2cc3nc(-c4n[nH]c5c4CCC5)[nH]c3cc21` [Example 5, 5-Isopropyl-7,7-dimethyl-2-(1,4,5,6-tetrahydro-cyclopentapyrazol-3-yl)-5,7-dihydro-3H-imidazo[4,5-f]indol-6-one], for which the IC50 in assay [2] is 17 nM.
In turn, `CC1(C)C(=O)N(CCCN2CCOCC2)c2cc3[nH]c(-c4n[nH]c5c4CCC5)nc3cc21` [Example 6, 7,7-Dimethyl-5-(3-morpholin-4-yl-propyl)-2-(1,4,5,6-tetrahydro-cyclopentapyrazol-3-yl)-5,7-dihydro-3H-imidazo[4,5-f]indol-6-one] yielded an IC50 in assay [1] of 682 nM.
`CCN1C(=O)C(C)(C)c2cc3nc(-c4n[nH]c5c4CN(C(=O)N4CCOCC4)CC5)[nH]c3cc21` [Example 18, 5-Ethyl-7,7-dimethyl-2-[5-(morpholine-4-carbonyl)-4,5,6,7-tetrahydro-1H-pyrazolo[4,3-c]pyridin-3-yl]-5,7-dihydro-3H-imidazo[4,5-f]indol-6-one]: in assay [1], the IC50 lay in the range of 100 to 2000 nM.
Still for that read-out and setting: under `CCCN1C(=O)C(C)(C)c2cc3nc(-c4n[nH]c5c4CCC5)[nH]c3cc21` [Example 4, 7,7-Dimethyl-5-propyl-2-(1,4,5,6-tetrahydro-cyclopentapyrazol-3-yl)-5,7-dihydro-3H-imidazo[4,5-f]indol-6-one] stands 224 nM.
Still for that read-out and setting: under `CCN1C(=O)C(C)(C)c2cc3nc(-c4n[nH]c5c4CN(C(=O)Cc4ccc(F)cc4)CC5)[nH]c3cc21` [Example 15, 5-Ethyl-2-{5-[2-(4-fluoro-phenyl)-acetyl]-4,5,6,7-tetrahydro-1H-pyrazolo[4,3-c]pyridin-3-yl}-7,7-dimethyl-5,7-dihydro-3H-imidazo[4,5-f]indol-6-one] stands 1500 nM; under `CN1C(=O)C(C)(C)c2cc3nc(-c4n[nH]c5c4CCC5)[nH]c3cc21` [Example 2, 5,7,7-Trimethyl-2-(1,4,5,6-tetrahydro-cyclopentapyrazol-3-yl)-5,7-dihydro-3H-imidazo[4,5-f]indol-6-one], 430 nM; under `CC1(C)C(=O)Nc2cc3[nH]c(-c4n[nH]c5c4CCCC5)nc3cc21` [Example 7, 7,7-Dimethyl-2-(4,5,6,7-tetrahydro-1H-indazol-3-yl)-5,7-dihydro-3H-imidazo[4,5-f]indol-6-one], 100 to 2000 nM.
Same read-out and setting: under `CCN1C(=O)C(C)(C)c2cc3nc(-c4n[nH]c5c4CN(C(=O)Cc4cccs4)C5)[nH]c3cc21` [Example 23, 5-Ethyl-7,7-dimethyl-2-[5-(2-thiophen-2-yl-acetyl)-1,4,5,6-tetrahydro-pyrrolo[3,4-c]pyrazol-3-yl]-5,7-dihydro-3H-imidazo[4,5-f]indol-6-one] stands 100 to 2000 nM.
In turn, `CCc1cccc(CC)c1NC(=O)N1Cc2[nH]nc(-c3nc4cc5c(cc4[nH]3)N(C(C)C)C(=O)C5(C)C)c2C1` [Example 21, 3-(5-Isopropyl-7,7-dimethyl-6-oxo-3,5,6,7-tetrahydro-imidazo[4,5-f]indol-2-yl)-4,6-dihydro-1H-pyrrolo[3,4-c]pyrazole-5-carboxylic acid (2,6-diethyl-phenyl)-amide] came in with an IC50 in assay [1] of 100 to 2000 nM.
`CC(C)N1C(=O)C(C)(C)c2cc3nc(-c4n[nH]c5c4CSC5)[nH]c3cc21` [Example 28, 2-(4,6-Dihydro-1H-thieno[3,4-c]pyrazol-3-yl)-5-isopropyl-7,7-dimethyl-5,7-dihydro-3H-imidazo[4,5-f]indol-6-one] registered an IC50 in assay [1] of 338 nM.
With `CC1(C)C(=O)Nc2cc3[nH]c(-c4n[nH]c5c4CCC5)nc3cc21` [Example 1, 7,7-Dimethyl-2-(1,4,5,6-tetrahydro-cyclopentapyrazol-3-yl)-5,7-dihydro-3H-imidazo[4,5-f]indol-6-one], the IC50 in assay [1] was 100 to 2000 nM.
For `CCN1C(=O)C(C)(C)c2cc3nc(-c4n[nH]c5c4CCCC5)[nH]c3cc21` [Example 8, 5-Ethyl-7,7-dimethyl-2-(4,5,6,7-tetrahydro-1H-indazol-3-yl)-5,7-dihydro-3H-imidazo[4,5-f]indol-6-one], in assay [1], the IC50 fell in the range of 100 to 2000 nM.
`CCN1C(=O)C(C)(C)c2cc3nc(-c4n[nH]c5c4CCC5)[nH]c3cc21` [Example 3, 5-Ethyl-7,7-dimethyl-2-(1,4,5,6-tetrahydro-cyclopentapyrazol-3-yl)-5,7-dihydro-3H-imidazo[4,5-f]indol-6-one] yielded an IC50 in assay [1] of 100 to 2000 nM.
The same measure, in the same setting: under `CCN1C(=O)C(C)(C)c2cc3nc(-c4n[nH]c5c4CN(S(=O)(=O)c4ccc(F)cc4)C5)[nH]c3cc21` [Example 25, 5-Ethyl-2-[5-(4-fluoro-benzenesulfonyl)-1,4,5,6-tetrahydro-pyrrolo[3,4-c]pyrazol-3-yl]-7,7-dimethyl-5,7-dihydro-3H-imidazo[4,5-f]indol-6-one] stands 100 to 2000 nM; under `CCN1C(=O)C(C)(C)c2cc3nc(-c4n[nH]c5c4CN(Cc4ccccc4)CC5)[nH]c3cc21` [Example 13, 2-(5-Benzyl-4,5,6,7-tetrahydro-1H-pyrazolo[4,3-c]pyridin-3-yl)-5-ethyl-7,7-dimethyl-5,7-dihydro-3H-imidazo[4,5-f]indol-6-one], 100 to 2000 nM; under `CC(C)N1C(=O)C(C)(C)c2cc3nc(-c4n[nH]c5c4CN(C(=O)Cc4cccs4)C5)[nH]c3cc21` [Example 24, 5-Isopropyl-7,7-dimethyl-2-[5-(2-thiophen-2-yl-acetyl)-1,4,5,6-tetrahydro-pyrrolo[3,4-c]pyrazol-3-yl]-5,7-dihydro-3H-imidazo[4,5-f]indol-6-one], 741 nM.

The values are drawn from US20060235013A1, “Tricyclic azole derivatives” (priority 2005, published 2006).
